Test results taken from PubChem BioAssay (NCI).
“And” between values parts separate entries of the source, which are not always exact repeats. Equal entries are not always repeated.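 Test compounds were applied to cells in 96-well plates for 48 hours at 5 doses. Here, GI50 denotes the concentration required for 50% inhibition of growth. Definition used: TGI = concentration required for complete inhibition of growth.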

Assays:
Assay in all cases: NCI tumour cell line growth inhibition, 48 h
[1] = tested on: RXF-631 renal
[2] = tested on: XF 498 CNS
[3] = tested on: M19-MEL melanoma
[4] = tested on: HOP-18 NSCLC
[5] = tested on: DMS 273 small cell lung
[6] = tested on: SNB-78 CNS
[7] = tested on: KM20L2 colon
[8] = tested on: DMS 114 small cell lung
[9] = tested on: MDA-N
[10] = tested on: SN12K1 renal
[11] = tested on: P388/ADR leukemia

| SMILES | TGI [1] | TGI [2] | TGI [3] | TGI [4] | TGI [5] | TGI [6] | TGI [7] | TGI [8] | other results |
| --- | --- | --- | --- | --- | --- | --- | --- | --- | --- |
| O=C1C2C3CC(C4C5C=CC(C5)C34)C2C2C3CC(C12)C1C2C=CC(C2)C31 (stereo not given) | > 100 µM | > 100 µM | > 100 µM | > 100 µM | > 100 µM | > 100 µM | > 100 µM | > 100 µM | – |
| COc1ccc(OC)c(/C=N/N=C(\N)NO)c1 | > 100 µM | 58.3 µM | > 100 µM | – | > 100 µM | > 100 µM | – | > 100 µM | – |
| O=[N+]([O-])c1cc([N+](=O)[O-])c(Nn2c3ccccc3c3ccccc32)c([N+](=O)[O-])c1 | – | – | – | – | – | – | – | – | TGI [9]: 12.2 µM |
| Cc1cccc(C)c1N1C(=O)C(=O)C(c2nc3ccccc3s2)/C(=N\N)C1=O (stereo not given) | > 100 µM | – | > 100 µM | > 100 µM | > 100 µM | > 100 µM | > 100 µM | > 100 µM | – |
| NS(=O)(=O)c1cc(C(=O)O)c(O)c2ccccc12 | – | – | – | – | – | – | – | – | TGI [9]: > 100 µM |
| CNS(=O)(=O)NNS(=O)(=O)c1ccc(OC)cc1 | > 100 µM | > 100 µM | > 100 µM | – | > 100 µM | – | > 100 µM | > 100 µM | – |
| CCc1nc2ccc(N=Nc3c(O)ccc4ccccc34)cc2[nH]1 | – | – | 33.8 µM | – | 35.3 µM | 32.7 µM | 36.9 µM | 35.1 µM | TGI [9]: 51.5 µM |
| COc1cc(/C=N/N=C(\N)NO)c(Cl)cc1O | – | – | > 100 µM | – | – | > 100 µM | – | > 100 µM | – |
| CC(=O)[CH-]C(=O)c1ccccc1.CC(=O)[CH-]C(=O)c1ccccc1.CC(=O)[CH-]C(=O)c1ccccc1.[Nd+3].[OH3+] | – | – | > 100 µM | – | – | – | > 100 µM | – | GI50 [3]: 31.4 µM; GI50 [7]: 38 µM |
| CCCCCCCCCC[C@H](O)[C@H](O)CC[C@@H](O)[C@H]1CC[C@@H]([C@H]2CC[C@H](CCCCCCC[C@@H](O)CC3=C[C@H](C)OC3=O)O2)O1 | – | – | – | – | – | – | – | – | GI50 [9]: 17.5 µM; TGI [9]: 53 µM |
| NC1=NN(c2ccccc2)C(=O)C1C(=O)C(=O)Nc1ccc(Cl)c(Cl)c1 (stereo not given) | > 100 µM | – | > 100 µM | > 100 µM | > 100 µM | > 100 µM | > 100 µM | > 100 µM | – |
| CN(/N=C\c1ccnc2ccccc12)c1ccc([N+](=O)[O-])cc1 | > 100 µM | > 100 µM | > 100 µM | – | > 100 µM | > 100 µM | > 100 µM | – | – |
| CC(C)CCCCCCCCCCCCC(=O)NCC(=O)NC1C(O)C(O)C(Nc2ncnc3nc[nH]c23)OC1C(O)CO (stereo not given) | – | – | 0.0409 µM and 0.0156 µM | 0.00108 µM | 0.00174 µM | 0.0647 µM and 0.244 µM | 0.0222 µM and 0.0138 µM | 0.0278 µM and 0.00687 µM | GI50 [3]: 0.005 µM; GI50 [10]: 0.00646 µM; TGI [10]: 0.332 µM and 0.223 µM; GI50 [9]: < 1e-05 µM; GI50 [6]: 0.005 µM; GI50 [7]: 0.005 µM; GI50 [8]: 0.005 µM; GI50 [11]: 0.005 µM |
| COc1c(-c2ccccc2)nc2ccc(Oc3ccccc3)nn12 | – | 66.9 µM | > 100 µM | > 87.1 µM | > 100 µM | > 100 µM | > 100 µM | > 87.7 µM | – |
| O=C(Nc1ccc(Cl)c(Cl)c1)C(=O)C(C(=O)c1ccccc1-c1ccccc1)C1OC(=O)c2ccccc21 (stereo not given) | 37.7 µM | 26.5 µM | 33.9 µM | – | – | > 100 µM | 52.7 µM | 27 µM | – |
| O=C1/C(=C/c2ccc(Cl)cc2)CNC/C1=C\c1ccc(Cl)cc1 | 12.5 µM | 7.28 µM | 4.81 µM | 18 µM | 5.78 µM | 12.1 µM | – | – | TGI [9]: 16.1 µM |
| COC(=O)[C@@H]1Cc2c([nH]c3ccccc23)[C@H](c2ccccc2)N1 | – | – | > 100 µM | > 100 µM | 57.8 µM | – | > 100 µM | 84 µM | – |
| CCCCCC/C=C\CCCCCCCCCC1=C(CN2CCN(C)CC2)C(=O)C=C(OC)C1=O | – | – | – | – | – | – | – | – | TGI [9]: 21.1 µM |
| Nc1c(Cl)ncnc1NCCCCCCCCCCCCNc1ncnc(Cl)c1N | 9.72 µM | 3.02 µM | 18.8 µM | 83.1 µM | 10.2 µM | 3.54 µM | > 100 µM | 2.49 µM | – |
| COC1(OC)C2(Cl)C(Cl)=C(Cl)C1(Cl)C1C2C2CC1(C(=O)O)c1ccccc12 (stereo not given) | 42.8 µM | – | 38.3 µM | 93.9 µM | 41.2 µM | – | 62.8 µM | 39.9 µM | – |
| C/C=C1/CC(C)C(C)(O)C(=O)OCC2C(O)CN3CCC(OC1=O)C23 (stereo not given) | – | – | – | – | – | – | – | – | TGI [9]: > 100 µM |
| COC1OC2COC(C)(C)OC2C(OC(C)=O)C1NC(=O)N(CCCl)N=O (stereo not given) | – | > 100 µM | > 100 µM | > 100 µM | > 100 µM | > 100 µM | > 100 µM | > 100 µM | – |
| O=C1c2ccccc2C2CCC1c1ccccc12 (stereo not given) | – | 91.6 µM | 96.1 µM | > 100 µM | 71.4 µM | > 100 µM | > 100 µM | 57 µM | – |

| SMILES | TGI [1] | TGI [2] | TGI [3] | TGI [4] | TGI [5] | TGI [6] | TGI [7] | TGI [8] | other results |
| --- | --- | --- | --- | --- | --- | --- | --- | --- | --- |
| CC(=O)NNc1nc(C)c(C(/C=C/c2ccccc2O)=N/N=C(N)N)s1 | – | – | – | – | – | – | – | – | TGI [9]: > 100 µM |
| O=C(Nc1ccc(Cl)cc1Cl)OC(Cn1cncn1)c1ccc(Cl)cc1Cl (stereo not given) | 33.2 µM | 27.9 µM | 30.8 µM | 41.5 µM | 31.4 µM | 38.6 µM | 30.3 µM | 29.8 µM | – |
| O=C(/C=C\c1cccc2ccccc12)c1ccc(Cl)cc1Cl | 74.3 µM | – | 35.9 µM | 48.1 µM | 34.8 µM | 45.5 µM | 91.8 µM | 30.8 µM | – |
| N#CC(C(=O)/C(=N\NC(N)=O)C(C#N)c1ccccc1)c1ccccc1 (stereo not given) | > 100 µM | – | – | – | > 100 µM | > 100 µM | > 100 µM | – | – |
| CC(=O)[C@H]1CCC2[C@@H]3CC=C4C[C@@H]([O-])CC[C@]4(C)C3CC[C@@]21C.CC(=O)[C@H]1CCC2[C@@H]3CC=C4C[C@@H]([O-])CC[C@]4(C)C3CC[C@@]21C.CC(=O)[CH-]C(=O)c1ccccc1.CC(=O)[CH-]C(=O)c1ccccc1.Cl.[Ti+4] (stereo not given in full) | – | – | > 100 µM | > 100 µM | > 100 µM | – | > 100 µM | – | GI50 [3]: 43.5 µM; GI50 [4]: 42.9 µM; GI50 [5]: 30.3 µM; GI50 [7]: 10.8 µM |
| O=C1C=CC(=O)c2c(O)c3c(c(O)c21)C[C@H](O)[C@H](O)[C@@H]3O | – | – | – | – | – | – | – | – | TGI [9]: 2.95 µM |
| N/N=C(/Cc1nc2ccc(C(=O)c3ccccc3)cc2[nH]c1=O)C(=O)Nc1ccc([N+](=O)[O-])cc1[N+](=O)[O-] | – | > 100 µM | > 100 µM | > 100 µM | > 100 µM | > 100 µM | > 100 µM | > 100 µM | GI50 [3]: > 100 µM; GI50 [5]: > 100 µM; GI50 [6]: > 100 µM; GI50 [8]: > 100 µM |
| CC1(C)CCCC(C)(C2CCC3(C)C2C(O)CC2C4(C)CCC(O)C(C)(C)C4CCC23C)O1 (stereo not given) | – | – | – | – | – | – | – | – | TGI [9]: > 100 µM |
| Clc1cccc(C2N3CCCCC3[C@@H]3c4[nH]c5ccccc5c4CCN23)c1 (stereo not given in full) | – | 40 µM | 48 µM | > 100 µM | > 100 µM | – | > 100 µM | 55.6 µM | – |
| O=C1O/C(=C/c2ccccc2)C(c2ccccc2)=C1O | – | – | – | – | – | – | – | – | TGI [9]: > 100 µM |
| CC1=CC(C)(C)NN1C1=NS(=O)(=O)c2ccccc2N1C | – | – | – | – | – | – | – | – | TGI [9]: > 100 µM |
| Cc1nc2c(o1)C(=Nc1ccccc1)c1nc(C)oc1C2=Nc1ccccc1 | – | 33.2 µM | 47.6 µM | 52.9 µM | 50.5 µM | > 100 µM | 70 µM | 60.4 µM | – |
| CN(/N=C/c1ccnc2ccccc12)c1c([N+](=O)[O-])cc([N+](=O)[O-])cc1[N+](=O)[O-] | – | > 100 µM | > 100 µM | > 100 µM | > 100 µM | > 100 µM | > 100 µM | > 100 µM | – |
| Nc1ccccc1C(=O)CCC1C(=O)NC(=S)NC1=O | > 100 µM | – | > 100 µM | > 100 µM | > 100 µM | – | > 100 µM | > 100 µM | TGI [9]: > 100 µM |
| O=C(/C=C/c1cccc([N+](=O)[O-])c1)c1ccc([N+](=O)[O-])cc1 | > 100 µM | > 100 µM | > 100 µM | – | > 100 µM | > 100 µM | > 100 µM | – | – |
| COC(=O)C1C(=O)O[C@@H](c2cc(OC)c(OC)cc2OC)C1C(=O)OC (mixture of isomers) | > 100 µM | > 100 µM | > 100 µM | – | > 100 µM | > 100 µM | > 100 µM | > 100 µM | – |
| COc1ccc(S(=O)(=O)N(CC(=O)O)c2ccccc2)cc1 | – | – | > 100 µM | > 100 µM | > 100 µM | – | > 100 µM | – | – |
| Clc1cccc(-c2nnc(-c3nn(-c4ccccc4)c4nc5ccccc5nc34)o2)c1 | – | > 100 µM | > 100 µM | > 100 µM | > 100 µM | > 100 µM | > 100 µM | > 100 µM | – |
| COC(=O)C1=CC2C=CC(C1C(=O)OC)C1C(C(=O)OC)=C(C(=O)OC)C(C(=O)OC)=C(C(=O)OC)C21OC (stereo not given) | > 100 µM | – | > 100 µM | > 100 µM | > 100 µM | > 100 µM | > 100 µM | > 100 µM | – |
| CC(=O)[CH-]C(=O)c1ccccc1.CC(=O)[CH-]C(=O)c1ccccc1.O=S(=O)([O-])c1cc([O-])c2c([O-])cc(S(=O)(=O)[O-])cc2c1.[Na+].[Zr+4] | – | – | – | – | – | – | > 100 µM | – | GI50 [7]: > 100 µM |
| CCNC(=O)OCc1c(COC(=O)NCC)c(-c2ccc(Cl)c(Cl)c2)n2c1CCC2 | – | 36.3 µM | 58.1 µM | – | 31.1 µM | – | 68.3 µM | 25.4 µM | – |
| O=c1c(Cl)c(Cl)cnn1CCCl | – | 11.7 µM | 8.75 µM | – | 21 µM | 30.7 µM | 27.2 µM | 18.9 µM | – |
